Measurements taken from PubChem BioAssay AID248 (DTP/NCI, 2004).
Values joined by “and” are separate entries in the source; they are usually repeats but may differ in a detail not shown here. Identical values can stand only once. Inconclusive results and toxic doses are left out. Rule as the data show it: active = T/C of 150% or more; inactive = T/C below 125%.

Tested on: L1210 leukemia ip in BDF1 mice, survival T/C
Test: NCI In Vivo Anticancer Drug Screen. Data for tumor model L1210 Leukemia (intraperitoneal) in B6D2F1 (BDF1) mice
Settings: endpoint: mean survival time, higher = longer survival
Method in brief: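 Transplanted-tumor mice were given test agent; controls received vehicle only. Survival readings from the two groups were divided (treated over control).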

[1] = dose: 100.0 mg/kg/injection, schedule: Q01DX001 (ip), vehicle: saline
[2] = dose: 100.0 mg/kg/injection, schedule: Q01DX009 (ip), vehicle: saline with Tween-80
[3] = dose: 200.0 mg/kg/injection, schedule: Q01DX001 (ip), vehicle: saline
[4] = dose: 200.0 mg/kg/injection, schedule: Q01DX009 (ip), vehicle: saline with Tween-80
[5] = dose: 400.0 mg/kg/injection, schedule: Q01DX001 (ip), vehicle: saline
[6] = dose: 400.0 mg/kg/injection, schedule: Q01DX009 (ip), vehicle: saline with Tween-80
[7] = dose: 100.0 mg/kg/injection, schedule: Q01DX001 (ip), vehicle: Klucel (hydroxypropylcellulose) (HPC)
[8] = dose: 100.0 mg/kg/injection, schedule: Q04DX003 (ip), vehicle: Klucel (hydroxypropylcellulose) (HPC)
[9] = dose: 200.0 mg/kg/injection, schedule: Q01DX001 (ip), vehicle: Klucel (hydroxypropylcellulose) (HPC)
[10] = dose: 200.0 mg/kg/injection, schedule: Q04DX003 (ip), vehicle: Klucel (hydroxypropylcellulose) (HPC)
[11] = dose: 400.0 mg/kg/injection, schedule: Q01DX001 (ip), vehicle: Klucel (hydroxypropylcellulose) (HPC)
[12] = dose: 400.0 mg/kg/injection, schedule: Q04DX003 (ip), vehicle: Klucel (hydroxypropylcellulose) (HPC)
[13] = dose: 50.0 mg/kg/injection, schedule: Q04DX003 (ip), vehicle: saline with Tween-80
[14] = dose: 100.0 mg/kg/injection, schedule: Q04DX003 (ip), vehicle: saline with Tween-80
[15] = dose: 200.0 mg/kg/injection, schedule: Q04DX003 (ip), vehicle: saline with Tween-80
[16] = dose: 100.0 mg/kg/injection, schedule: Q01DX009 (ip), vehicle: Klucel (hydroxypropylcellulose) (HPC)
[17] = dose: 200.0 mg/kg/injection, schedule: Q01DX009 (ip), vehicle: Klucel (hydroxypropylcellulose) (HPC)
[18] = dose: 400.0 mg/kg/injection, schedule: Q01DX009 (ip), vehicle: Klucel (hydroxypropylcellulose) (HPC)
[19] = dose: 25.0 mg/kg/injection, schedule: Q01DX001 (ip), vehicle: saline
[20] = dose: 50.0 mg/kg/injection, schedule: Q01DX001 (ip), vehicle: saline

Measured: T/C

COc1ccc(COc2ccc([N+](=O)[O-])cc2)cc1
inactive: dose: 50.0 mg/kg/injection, schedule: Q04DX002 (ip), vehicle: saline with Tween-80 101 % of control | dose: 100.0 mg/kg/injection, schedule: Q04DX002 (ip), vehicle: saline with Tween-80 104 % of control | dose: 200.0 mg/kg/injection, schedule: Q04DX002 (ip), vehicle: saline with Tween-80 97 % of control

O=S(=O)(Cl)c1cccc2cc3ccccc3cc12
inactive: [1] 92 % of control | [2] 107 % of control | [3] 100 % of control | [4] 102 % of control | [5] 98 % of control | [6] 103 % of control

Cc1c(O)cccc1F
inactive: dose: 25.0 mg/kg/injection, schedule: Q04DX002 (ip), vehicle: Klucel (hydroxypropylcellulose) (HPC) 98 % of control | dose: 50.0 mg/kg/injection, schedule: Q04DX002 (ip), vehicle: Klucel (hydroxypropylcellulose) (HPC) 102 % of control | dose: 100.0 mg/kg/injection, schedule: Q04DX002 (ip), vehicle: Klucel (hydroxypropylcellulose) (HPC) 111 % of control and 120 % of control

CN(C)C1=NS(=O)(=O)N=C(N(C)c2ccccc2)O1
inactive: [7] 109 % of control | [8] 97 % of control | [9] 101 % of control | [10] 105 % of control | [11] 103 % of control | [12] 103 % of control

C#CC1(OCC(CCl)OC(N)=O)CCCCC1 (centres undefined)
inactive: dose: 25.0 mg/kg/injection, schedule: Q01DX009 (ip), vehicle: saline with Tween-80 105 % of control | dose: 25.0 mg/kg/injection, schedule: Q04DX003 (ip), vehicle: saline with Tween-80 105 % of control | dose: 50.0 mg/kg/injection, schedule: Q01DX009 (ip), vehicle: saline with Tween-80 105 % of control | [13] 95 % of control | [2] 102 % of control | [14] 101 % of control | [4] 105 % of control | [15] 100 % of control | [6] 97 % of control | dose: 400.0 mg/kg/injection, schedule: Q04DX003 (ip), vehicle: saline with Tween-80 86 % of control

O=C(O)c1cc2ccccc2c2cc(C(F)(F)F)ccc12
inactive: dose: 75.0 mg/kg/injection, schedule: Q01DX001 (ip), vehicle: saline 92 % of control | dose: 150.0 mg/kg/injection, schedule: Q01DX001 (ip), vehicle: saline 97 % of control

COc1c(OC)c2c3c(c(-c4c(C)cc5c(C(C)C)c(OC)c(OC)c6c5c4OC6OC)c(C)cc3c1C(C)C)OC2OC (centres undefined)
inactive: [16] 102 % of control | [17] 102 % of control | [18] 107 % of control

COc1ccc(/C=C/C(=O)c2ccc(OC)cc2)cc1
inactive: [16] 100 % of control | [8] 102 % of control | [17] 94 % of control | [10] 98 % of control | [18] 92 % of control | [12] 101 % of control

ClC1CCC[N-]C1.ClC1CCC[N-]C1.[Cl][Pt+2][Cl] (centres undefined)
inactive: [13] 102 % of control | [14] 104 % of control | [15] 102 % of control

COc1ccc(Nc2cc(C)nc(N)n2)cc1
inactive: dose: 25.0 mg/kg/injection, schedule: Q01DX Z (ip), vehicle: methylcellulose (MC) 97 % of control | dose: 50.0 mg/kg/injection, schedule: Q01DX Z (ip), vehicle: methylcellulose (MC) 105 % of control

CC12CCC(=O)C=C1CCC1C2CCC2(C)C1CCC2[N+](C)(C)C (centres undefined)
inactive: dose: 75.0 mg/kg/injection, schedule: Q01DX001 (ip), vehicle: other 108 % of control

CN1CCCC1CCCl (centres undefined)
inactive: dose: 12.5 mg/kg/injection, schedule: Q01DX001 (ip), vehicle: saline 97 % of control | dose: 12.5 mg/kg/injection, schedule: Q04DX003 (ip), vehicle: saline 88 % of control | [19] 100 % of control | dose: 25.0 mg/kg/injection, schedule: Q04DX003 (ip), vehicle: saline 95 % of control | [20] 100 % of control | dose: 50.0 mg/kg/injection, schedule: Q04DX003 (ip), vehicle: saline 95 % of control | dose: 75.0 mg/kg/injection, schedule: Q04DX003 (ip), vehicle: saline 100 % of control

Cn1c2nc(=O)[nH]c(=O)c-2cc2ccccc21
inactive: [1] 100 % of control | [3] 94 % of control | [5] 97 % of control

Cc1cc(/C=C\c2ccccc2Cl)nc2cc(Cl)ccc12
inactive: dose: 100.0 mg/kg/injection, schedule: Q04DX003 (ip), vehicle: saline 102 % of control | dose: 200.0 mg/kg/injection, schedule: Q04DX003 (ip), vehicle: saline 98 % of control | dose: 400.0 mg/kg/injection, schedule: Q04DX003 (ip), vehicle: saline 102 % of control

C=CC1CN2CCC1CC2C(O)c1ccnc2ccccc12 (centres undefined)
inactive: dose: 100.0 mg/kg/injection, schedule: Q01DX009 (ip), vehicle: gum acacia 107 % of control | dose: 200.0 mg/kg/injection, schedule: Q01DX009 (ip), vehicle: gum acacia 105 % of control

O=[N+]([O-])c1ccc(Cl)nc1
inactive: [1] 103 % of control | dose: 100.0 mg/kg/injection, schedule: Q01DX009 (ip), vehicle: saline sonified 100 % of control | [3] 101 % of control | dose: 200.0 mg/kg/injection, schedule: Q01DX009 (ip), vehicle: saline sonified 104 % of control | [5] 103 % of control

CN1CN(c2ccccc2)C2(CCN(CC3Cc4cc(F)ccc4O3)CC2)C1=O (centres undefined)
inactive: [7] 101 % of control | [9] 98 % of control | [11] 96 % of control

COc1cc2c(cc1OC)C(=O)CC2
inactive: dose: 50.0 mg/kg/injection, schedule: Q01DX001 (ip), vehicle: other 91 % of control | dose: 100.0 mg/kg/injection, schedule: Q01DX001 (ip), vehicle: other 98 % of control | dose: 200.0 mg/kg/injection, schedule: Q01DX001 (ip), vehicle: other 98 % of control | dose: 400.0 mg/kg/injection, schedule: Q01DX001 (ip), vehicle: other 96 % of control

CCCCCCCC(=O)N1CCCC1C(=O)NCCCCC(=O)O (centres undefined)
inactive: [19] 95 % of control | [20] 98 % of control | [1] 95 % of control

Cc1nc2ccccc2n1C
inactive: [2] 107 % of control

CCOC(=O)C(CC(C)C)NC(=O)C(Cc1ccc(N(CCCl)CCCl)cc1)NC(C)=O (centres undefined)
inactive: dose: 1.0 mg/kg/injection, schedule: Q01DX009 (ip), vehicle: other 108 % of control | dose: 2.0 mg/kg/injection, schedule: Q01DX009 (ip), vehicle: other 108 % of control | dose: 4.0 mg/kg/injection, schedule: Q01DX009 (ip), vehicle: other 120 % of control | dose: 8.0 mg/kg/injection, schedule: Q01DX009 (ip), vehicle: other 119 % of control | dose: 16.0 mg/kg/injection, schedule: Q01DX009 (ip), vehicle: other 109 % of control | dose: 32.0 mg/kg/injection, schedule: Q01DX009 (ip), vehicle: other 116 % of control | dose: 62.5 mg/kg/injection, schedule: Q01DX001 (oral), vehicle: alcohol 102 % of control | dose: 66.0 mg/kg/injection, schedule: Q01DX001 (ip), vehicle: olive oil, sesame oil, peanut oil 108 % of control | dose: 100.0 mg/kg/injection, schedule: Q01DX001 (ip), vehicle: olive oil, sesame oil, peanut oil 110 % of control | dose: 125.0 mg/kg/injection, schedule: Q01DX001 (oral), vehicle: alcohol 101 % of control | dose: 250.0 mg/kg/injection, schedule: Q01DX001 (oral), vehicle: alcohol 104 % of control | dose: 250.0 mg/kg/injection, schedule: Q01DX001 (oral), vehicle: olive oil, sesame oil, peanut oil 113 % of control | dose: 500.0 mg/kg/injection, schedule: Q01DX001 (oral), vehicle: alcohol 113 % of control
